pIC50: −log10 of the molar value.
Target: T1, human sodium-dependent glucose transporter 2 (SGLT2, SLC5A2) (Homo sapiens, UniProt P31639)
T1 construct: Bases 21 to 2039 correspond to the complete coding region of human SGLT2; expressed in transfected cells
T1 sequence (P31639 1-672): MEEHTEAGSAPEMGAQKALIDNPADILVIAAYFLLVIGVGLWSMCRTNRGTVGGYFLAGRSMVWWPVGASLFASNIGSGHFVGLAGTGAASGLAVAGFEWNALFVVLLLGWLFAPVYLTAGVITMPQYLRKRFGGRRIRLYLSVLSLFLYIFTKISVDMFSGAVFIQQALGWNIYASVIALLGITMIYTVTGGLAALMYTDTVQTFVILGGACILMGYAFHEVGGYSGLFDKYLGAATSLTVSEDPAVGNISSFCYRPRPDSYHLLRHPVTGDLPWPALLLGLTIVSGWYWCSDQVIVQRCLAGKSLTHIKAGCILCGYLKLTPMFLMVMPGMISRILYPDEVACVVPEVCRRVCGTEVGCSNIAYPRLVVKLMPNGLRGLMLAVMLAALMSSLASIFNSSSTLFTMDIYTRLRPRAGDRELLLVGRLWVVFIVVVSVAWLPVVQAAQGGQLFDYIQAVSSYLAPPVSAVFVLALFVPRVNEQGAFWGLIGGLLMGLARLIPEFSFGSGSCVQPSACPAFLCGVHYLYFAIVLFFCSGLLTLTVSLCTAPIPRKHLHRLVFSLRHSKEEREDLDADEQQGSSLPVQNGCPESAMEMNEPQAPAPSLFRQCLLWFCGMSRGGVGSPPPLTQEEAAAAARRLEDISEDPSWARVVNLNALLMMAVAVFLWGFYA
Test: Inhibition of the transport activity of human SGLT2 in vitro (α-MDG uptake in CHO-TRex-hSGLT2 cells)
Assay type: cell-based
Settings: 50 μM α-MDG, 120 min at 37° C.
Description: Inhibition of the Transport Activity of the Human Sodium-Dependent Glucose Transporter 2 (SGLT2, SLC5A2) In Vitro
1. Cloning of an Expression Vector for Human SGLT2
The cDNA for human SGLT2 was introduced into the pcDNA4/TO vector (Invitrogen) by means of standard methods of molecular biology as described in Sambrook et al. (Molecular Cloning, A Laboratory Manual, Second Edition). […] Bases 21 to 2039 correspond to the complete coding region of human SGLT2.
2. Production of a Recombinant Cell Line with Inducible Expression of Human SGLT2
The expression vector for human SGLT2 was introduced into CHO-TREx cells (Invitrogen) by means of FuGene6 lipofection (Roche). To select single cell clones, 600 μg/ml of Zeocin (Invitrogen) was added to the cell culture medium (nutrient mixture F-12 (Ham), (Invitrogen) supplemented with 10% fetal calf serum (FBS Gold, PAA), 10 μg/ml Blasticidin S(CN Biosciences), 100 units/ml penicillin, 100 units/ml streptomycin). The functionality of the single cell clones resulting from the selection was tested via their uptake activity for radiolabeled methyl-α-D-glucopyranoside. That cell clone with the highest uptake activity for methyl-α-D-glucopyranoside, referred to hereinafter as CHO-TRex-hSGLT2, was selected for the further experiments and cultured further in the presence of 600 μg/ml Zeocin.
3. Measurement of the Inhibiting Action of Test Substances on the Uptake of methyl-α-D-glucopyranoside (α-MDG)
CHO-TRex-hSGLT2 cells were seeded in cell culture medium in a concentration of 50 000 cells per well in Cytostar-T scintillating 96-well plates (Amersham Biosciences) and cultivated for 24 h. The expression of the recombinant human SGLT2 was induced by adding 1 μg/ml tetrazykline for a further 24 h. For α-MDG uptake experiments, the cells were washed with PBS and then starved at 37° C. in starvation medium (PBS supplemented with 10% fetal calf serum) for 1 hour. After a further washing step with transport assay buffer (140 mM sodium chloride, 2 mm potassium chloride, 1 mm magnesium chloride, 1 mm calcium chloride, 10 mm HEPES/Tris, pH 7.5), the cells were incubated at room temperature either in the absence or presence of test substances of different concentration for 15 min. The test substances were diluted correspondingly in transport assay buffer proceeding from a 10 mm stock solution in dimethyl sulfoxide (40 μl/well). The assay was subsequently started by adding 10 μl/well of a mixture of radiolabeled methyl-α-D-[U-^14C]glucopyranoside (Amersham) and unlabeled methyl-α-D-glucopyranoside (Acros). The final concentration of methyl-α-D-glucopyranoside in the assay was 50 μM. After an incubation time of 120 min at 37° C., the reaction was stopped by adding 50 μl/well of 10 mM methyl-α-D-glucopyranoside in transport assay buffer (4° C.), and the radioactivity taken up into the cells was determined in a MicroBeta Scintillation Microplate Reader (Wallac).
The half-maximum inhibiting action of the test substances (IC50 value) was determined as follows: • 1. Determination of the value for 0% inhibition. This is the measurement in the absence of substance, measured in sodium-containing transport assay buffer. • 2. Determination of the value for 100% inhibition. This is the measurement in the absence of substance, measured in sodium-free transport assay buffer (140 mM choline chloride, 2 mM potassium chloride, 1 mM magnesium chloride, 1 mM calcium chloride, 10 mM HEPES/Tris, pH7.5). • 3. Calculation of the percentage inhibition values of those measurements which were carried out in the presence of different concentrations of test substance. From this, it was then possible to determine that concentration of the test substance which reduces the uptake of the methyl-α-D-glucopyranoside by 50% (IC50 value).

Row | Structure (SMILES) | pIC50
1 | CCc1ccc(Cc2cc(C3OC(CO)C(F)(F)C(O)C3O)ccc2Cl)cc1 (centres unmarked) [Example 1] | 7.92
2 | CCOc1ccc(Cc2cc(C3OC(CO)C(F)(F)C(O)C3O)ccc2Cl)cc1 (centres unmarked) [Example 2] | 7.74
3 | CCc1ccc(Cc2cc(C3OC(CO)C(F)C(O)C3O)ccc2Cl)cc1 (centres unmarked) [Example 3] | 8.10
4 | COc1ccc(Cc2cccc(C3OC(CO)C(F)C(O)C3O)c2)cc1 (centres unmarked) [Example 5] | 8.30
5 | CCc1ccc(Cc2cc(C3OC(CO)C(F)C(O)C3O)ccc2Cl)s1 (centres unmarked) [Example 6] | 7.92
6 | OCC1OC(c2ccc(Cl)c(Cc3cc4ccccc4s3)c2)C(O)C(O)C1F (centres unmarked) [Example 7] | 7.82
7 | CCOC(=O)OCC1OC(c2ccc(F)c(Cc3ccc(OC)cc3)c2)C(O)C(O)C1F (centres unmarked) [Example 8] | 5.85
8 | COc1ccc(Cc2cc(C3OC(CO)C(F)C(O)C3O)ccc2F)cc1 (centres unmarked) [Example 9] | 7.49
9 | CCOC(=O)OCC1OC(c2ccc(F)c(Cc3ccc(OC)cc3)c2)C(O)C(O)C1(F)F (centres unmarked) [Example 10] | 5.85
10 | COc1ccc(Cc2cc(C3OC(CO)C(F)(F)C(O)C3O)ccc2F)cc1 (centres unmarked) [Example 11] | 7.27
11 | CCOC(=O)OCC1OC(c2ccc(OC)c(Cc3ccc(OC)cc3)c2)C(O)C(O)C1F (centres unmarked) [Example 12] | 5.57
12 | COc1ccc(Cc2cc(C3OC(CO)C(F)C(O)C3O)ccc2OC)cc1 (centres unmarked) [Example 13] | 7.51
13 | COc1ccc(Cc2cc(C3OC(CO)C(F)(F)C(O)C3O)ccc2OC)cc1 (centres unmarked) [Example 15] | 7.10
14 | CCOC(=O)OCC1OC(c2ccc(Cl)c(Cc3ccc(OCC)cc3)c2)C(O)C(O)C1F (centres unmarked) [Example 16] | 5.57
15 | CCOc1ccc(Cc2cc(C3OC(CO)C(F)C(O)C3O)ccc2Cl)cc1 (centres unmarked) [Example 17] | 8.00
16 | CCOC(=O)OCC1OC(c2ccc(Cl)c(Cc3ccc(OCC)cc3)c2)C(O)C(O)C1(F)F (centres unmarked) [Example 18] | 6.05
17 | CCOC(=O)OCC1OC(c2ccc(Cl)c(Cc3ccc(OC)cc3)c2)C(O)C(O)C1(F)F (centres unmarked) [Example 21] | 6.47
18 | COc1ccc(Cc2cc(C3OC(CO)C(F)(F)C(O)C3O)ccc2Cl)cc1 (centres unmarked) [Example 22] | 8.05
19 | CCOC(=O)OCC1OC(c2ccc(Cl)c(Cc3ccc(OC(F)(F)F)cc3)c2)C(O)C(O)C1F (centres unmarked) [Example 24] | 6.01
20 | OCC1OC(c2ccc(Cl)c(Cc3ccc(OC(F)(F)F)cc3)c2)C(O)C(O)C1F (centres unmarked) [Example 25] | 7.39
21 | CCOC(=O)OCC1OC(c2ccc(Cl)c(Cc3ccc(OC(F)(F)F)cc3)c2)C(O)C(O)C1(F)F (centres unmarked) [Example 26] | < 5.00

Row | Structure (SMILES) | pIC50
22 | OCC1OC(c2ccc(Cl)c(Cc3ccc(OC(F)(F)F)cc3)c2)C(O)C(O)C1(F)F (centres unmarked) [Example 27] | 6.70
23 | OC[C@H]1O[C@@H](c2ccc(Cl)c(Cc3ccc(O)cc3)c2)[C@H](O)[C@@H](O)C1(F)F [Example 30] | 7.82
24 | CC(C)Oc1ccc(Cc2cc([C@@H]3O[C@H](CO)C(F)(F)[C@H](O)[C@H]3O)ccc2Cl)cc1 [Example 31] | 7.38
25 | Cc1ccc(C2OC(CO)C(F)(F)C(O)C2O)cc1Cc1ccc(O)cc1 (centres unmarked) [Example 33] | 7.42
26 | COc1ccc(Cc2cc(C3OC(CO)C(F)(F)C(O)C3O)ccc2C)cc1 (centres unmarked) [Example 34] | 7.57
27 | CCOC(=O)OCC1OC(c2ccc(Cl)c(Cc3ccc(OC)cn3)c2)C(O)C(O)C1F (centres unmarked) [Example 35] | 4.90
28 | COc1ccc(Cc2cc(C3OC(CO)C(F)C(O)C3O)ccc2Cl)nc1 (centres unmarked) [Example 36] | 6.52
29 | CCOC(=O)OCC1OC(c2ccc(Cl)c(Cc3ccc(OC)cn3)c2)C(O)C(O)C1(F)F (centres unmarked) [Example 37] | 4.95
30 | COc1ccc(Cc2cc(C3OC(CO)C(F)(F)C(O)C3O)ccc2Cl)nc1 (centres unmarked) [Example 38] | 6.41
31 | CCOC(=O)OC[C@H]1O[C@@H](c2ccc(OC(F)(F)F)c(Cc3ccc(OC)cc3)c2)[C@H](O)[C@@H](O)[C@@H]1F [Example 39] | 4.70
32 | COc1ccc(Cc2cc([C@@H]3O[C@H](CO)[C@@H](F)[C@H](O)[C@H]3O)ccc2OC(F)(F)F)cc1 [Example 40] | 6.39
33 | CCOC(=O)OC[C@H]1O[C@@H](c2ccc(OC(F)(F)F)c(Cc3ccc(OC)cc3)c2)[C@H](O)[C@@H](O)C1(F)F [Example 41] | 4.89
34 | COc1ccc(Cc2cc([C@@H]3O[C@H](CO)C(F)(F)[C@H](O)[C@H]3O)ccc2OC(F)(F)F)cc1 [Example 42] | 6.01
35 | OC[C@H]1O[C@@H](c2ccc(Cl)c(Cc3ccc(Cl)cc3)c2)[C@H](O)[C@@H](O)[C@@H]1F [Example 44] | 7.62
36 | OC[C@H]1O[C@@H](c2ccc(Cl)c(Cc3ccc(Cl)cc3)c2)[C@H](O)[C@@H](O)C1(F)F [Example 46] | 7.12
37 | COc1ccc(Cc2cc([C@@H]3O[C@H](CO)[C@@H](F)[C@H](O)[C@H]3O)ccc2C(F)(F)F)cc1 [Example 48] | 7.13
38 | CCOC(=O)OC[C@H]1O[C@@H](c2ccc(C(F)(F)F)c(Cc3ccc(OC)cc3)c2)[C@H](O)[C@@H](O)C1(F)F [Example 49] | 5.10
39 | COc1ccc(Cc2cc([C@@H]3O[C@H](CO)C(F)(F)[C@H](O)[C@H]3O)ccc2C(F)(F)F)cc1 [Example 50] | 6.81
40 | COc1ccc(Cc2cc(C3OC(CO)C(F)C(O)C3O)ccc2Br)cc1 (centres unmarked) [Example 56] | 8.03
41 | CCc1ccc(Cc2cc(C3OC(CO)C(F)C(O)C3O)ccc2C)cc1 (centres unmarked) [Example 61] | 8.00

Reference: patent US20110059910A1, “Novel aromatic fluoroglycoside derivatives, pharmaceuticals comprising said compounds and the use thereof” (SANOFI-AVENTIS, priority 2008, published 2011)
